Measured values published in patent US20260308186A1, “STAT DEGRADERS AND USES THEREOF” (Recludix Pharma, Inc., priority 2023, published 2026).

Columns and labels:
[1] = target: T1, STAT3 (Homo sapiens, UniProt P40763); test: STAT3 Fluorescence Polarization (FP) Assay; assay type: binding; conditions: recombinant STAT3 25 nM; probe 5-FAM-GpYLPQTV-NH2 2 nM; 45 min, room temperature; read-out: STAT3 FP IC50
T1 construct: Recombinant STAT3 protein (STAT3(G127-1722))
Experimental: STAT3 Fluorescence Polarization (FP) Assay
An FP assay was developed to determine IC50 values for test substances. Recombinant STAT3 protein (STAT3(G127-1722)) at 25 nM was combined with a fluorescently labeled, phosphotyrosine peptide probe (5-FAM-GpYLPQTV-NH2) at 2 nM in FP buffer (10 mM HEPES pH 7.4, 50 mM NaCl, 1 mM EDTA, 0.05% Tween 20.2 mM DTT). 50 μL of STAT3-probe mixture was added to serial diluted compounds in black, 96-well plates (Greiner BioOne 655076) to a final concentration of 1% DMSO. Reaction components were mixed, and FP was measured after 45-minute incubation at room temperature using a Tecan Spark multimode plate reader. FP signal (mP) was plotted against the log concentration of the test substances and IC50 values were calculated by nonlinear regression analysis using GraphPad Prism software. For STAT3 FP assay. A=≤100 nM; B=>100-1000 nM; C=>1-10 μM; and D=>10 μM.

[2] = target: T2, STAT6 (Homo sapiens, UniProt P42226); test: STAT6 Fluorescence Polarization (FP) Assay; assay type: binding; conditions: recombinant STAT6(W123-T658) 250 nM; probe 5-FAM-Ap[…]-NH2 2 nM; 45 min, room temperature; read-out: STAT6 FP IC50
T2 construct: Recombinant STAT6 protein (STAT6(W123-T658))
T2 sequence (P42226 123-658): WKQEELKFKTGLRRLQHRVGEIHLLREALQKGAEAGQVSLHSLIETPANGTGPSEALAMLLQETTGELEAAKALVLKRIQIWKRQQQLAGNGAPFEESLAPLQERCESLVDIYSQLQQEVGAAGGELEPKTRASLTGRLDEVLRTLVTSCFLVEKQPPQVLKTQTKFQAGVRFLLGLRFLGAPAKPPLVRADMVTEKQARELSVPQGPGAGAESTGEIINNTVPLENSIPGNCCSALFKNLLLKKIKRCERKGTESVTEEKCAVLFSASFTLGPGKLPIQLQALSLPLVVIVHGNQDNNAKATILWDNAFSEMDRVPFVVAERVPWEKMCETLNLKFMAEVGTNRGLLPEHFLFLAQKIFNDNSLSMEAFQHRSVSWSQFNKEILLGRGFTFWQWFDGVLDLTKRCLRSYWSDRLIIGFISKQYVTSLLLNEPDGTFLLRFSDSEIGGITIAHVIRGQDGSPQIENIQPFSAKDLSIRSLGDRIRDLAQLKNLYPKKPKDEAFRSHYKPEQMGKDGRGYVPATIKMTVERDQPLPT
Experimental: STAT6 Fluorescence Polarization (FP) Assay
An FP assay was developed to determine IC50 values for test substances. Recombinant STAT6 protein (STAT6(W123-T658)) at 250 nM was combined with a fluorescently labeled, phosphotyrosine peptide probe (5-FAM-Ap[…]-NH2) at 2 nM in FP buffer (10 mM HEPES pH 7.4, 50 mM NaCl, 1 mM EDTA, 0.05% Tween 20, 2 mM DTT), 50 μL of STAT6-probe mixture was added to serial diluted compounds in black, 96-well plates (Greiner BioOne 655076) to a final concentration of 1% DMSO. Reaction components were mixed, and FP was measured after 45-minute incubation at room temperature using a Tecan Spark multimode plate reader. FP signal (mP) was plotted against the log concentration of the test substances and IC50 values were calculated by nonlinear regression analysis using GraphPad Prism software. For STAT6 FP assay. A=≤300 nM; B=>300-3000 nM; C=>3-30 μM; and D=>30 μM.

[3] = target: T3, pSTAT6 (Homo sapiens, UniProt P42226); test: MSD-pSTAT-PBMC Assay, pSTAT6 (IL-4 stimulated PBMC); assay type: cell-based; conditions: compound 3 hrs, then 1 ng/mL IL-4 for 10 min, pY641-STAT6, read-out: pSTAT6 IC50
T3 construct: pY641-STAT6 MSD read-out
T3 sequence (P42226 1-847): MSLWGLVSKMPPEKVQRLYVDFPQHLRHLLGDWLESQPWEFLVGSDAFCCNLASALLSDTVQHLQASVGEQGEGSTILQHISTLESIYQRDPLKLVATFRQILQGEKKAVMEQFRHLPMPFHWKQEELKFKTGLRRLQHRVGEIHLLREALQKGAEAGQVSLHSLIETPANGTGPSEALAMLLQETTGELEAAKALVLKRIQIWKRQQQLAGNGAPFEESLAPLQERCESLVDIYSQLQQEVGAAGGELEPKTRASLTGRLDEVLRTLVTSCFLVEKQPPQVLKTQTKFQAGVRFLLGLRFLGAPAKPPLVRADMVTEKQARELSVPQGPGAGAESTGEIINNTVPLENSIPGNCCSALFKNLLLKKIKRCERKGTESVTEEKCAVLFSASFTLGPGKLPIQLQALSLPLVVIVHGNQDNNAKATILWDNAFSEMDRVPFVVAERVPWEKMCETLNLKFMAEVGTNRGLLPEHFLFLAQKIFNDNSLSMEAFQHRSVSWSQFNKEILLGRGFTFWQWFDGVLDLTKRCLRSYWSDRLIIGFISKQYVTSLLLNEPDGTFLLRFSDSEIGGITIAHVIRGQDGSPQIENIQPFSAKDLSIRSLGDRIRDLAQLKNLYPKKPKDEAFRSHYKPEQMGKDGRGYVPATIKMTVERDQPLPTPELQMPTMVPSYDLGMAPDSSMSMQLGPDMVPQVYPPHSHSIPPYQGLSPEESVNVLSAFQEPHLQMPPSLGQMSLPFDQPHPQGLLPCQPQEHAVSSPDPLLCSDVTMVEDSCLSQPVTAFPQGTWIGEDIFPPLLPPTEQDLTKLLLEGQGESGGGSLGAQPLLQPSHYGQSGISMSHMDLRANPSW
Source text: Cryopreserved Peripheral Blood Mononuclear Cells (PBMC) are from AllCells. Recombinant Human IL-4 and IL-6 are from Peprotech. Mouse monoclonal anti-STAT3 antibody, rabbit monoclonal anti-pY705-STAT3 antibody, rabbit monoclonal Anti-pY641-STAT6 antibody, and lysis buffer are from Cell Signaling Technology (CST). Mouse monoclonal anti-STAT6 antibody is from BioLegend. Assay plates, blocker, and anti-rabbit secondary antibody are from Meso Scale Discovery (MSD).
Cryopreserved PBMCs were thawed out and allowed to recover overnight in IMDM+10% heat-inactivated FBS prior to plating 50,000 (STAT3) or 25,000 (STAT6) cells per well in 96-well U-bottom tissue culture plates. Cells were treated with compound for 3 hrs. then stimulated with 10 ng/mL IL-6 (STAT3) or 1 ng/mL IL-4 (STAT6) for 10 min. Cells were then spun down and washed with ice-cold PBS prior to lysing the cell pellet with 1× lysis buffer (CST) with 1×HALT protease and phosphatase inhibitor cocktail (Thermo). Lysates were transferred to and incubated overnight at 4° C. with shaking in QuickPlex 96-well high bind assay plates (MSD) pre-coated overnight with 30 μL per well of 0.6 μg/mL mouse monoclonal anti-STAT3 antibody (STAT3) or 2 μg/mL mouse monoclonal anti-STAT6 antibody (STAT6) in 1×PBS, and pre-blocked for 1 hour with 3% Blocker-A (MSD). Captured protein in the assay plates were then washed and probed with 25 μL per well of 0.25 μg/ml rabbit monoclonal anti-pY705-STAT3 antibody (STAT3) or 0.18 μg/ml rabbit monoclonal Anti-pY641-STAT6 antibody (STAT6) in 1% Blocker-A for 1 hour at room temperature with shaking, then washed and probed with 25 ul per well of 1 ug/ml Sulfo-TAG Labeled Goat Anti-Rabbit Antibody (MSD) in 1% Blocker-A for 1 hour at room temperature with shaking. Assay plates were then washed and 150 μL of 1× Read Buffer-T (MSD) was added to each well prior to reading on an SQ120 MSD Plate Reader. Assay signal from each sample was subtracted by the signal from unstimulated control wells and normalized to DMSO control wells. IC50 values were calculated using Graph Pad Prism Dose-Response Nonlinear Regression with variable slope. For both pSTAT3 and pSTAT6 A=≤100 nM; B=>100-1000 nM; C=>1000-3000 nM; and D=>3 μM.

T1 sequence (P40763 127-722 limits assumed): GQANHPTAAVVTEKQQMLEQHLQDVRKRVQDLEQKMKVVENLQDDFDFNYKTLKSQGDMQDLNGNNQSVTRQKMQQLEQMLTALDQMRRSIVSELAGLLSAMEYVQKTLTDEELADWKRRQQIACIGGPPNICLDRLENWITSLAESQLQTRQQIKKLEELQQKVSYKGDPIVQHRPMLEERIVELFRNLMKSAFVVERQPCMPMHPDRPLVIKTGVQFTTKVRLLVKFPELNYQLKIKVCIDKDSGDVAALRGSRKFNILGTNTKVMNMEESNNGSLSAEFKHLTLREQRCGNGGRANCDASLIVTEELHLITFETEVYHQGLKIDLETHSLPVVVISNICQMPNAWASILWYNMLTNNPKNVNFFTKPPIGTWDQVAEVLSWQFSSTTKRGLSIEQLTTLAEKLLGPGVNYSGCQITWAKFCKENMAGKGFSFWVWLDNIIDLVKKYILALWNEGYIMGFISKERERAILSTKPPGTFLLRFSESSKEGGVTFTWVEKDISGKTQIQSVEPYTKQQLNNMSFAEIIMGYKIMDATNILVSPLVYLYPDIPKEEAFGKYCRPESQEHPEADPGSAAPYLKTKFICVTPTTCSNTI

SMILES	IC50 [1] [µM]	IC50 [2] [nM]	IC50 [3] [µM]
Cc1ccc2onc(C(=O)N3CC[C@H]4CC[C@@H](C(=O)N(C)CCCC(=O)N[C@H](C(=O)N5C[C@H](O)C[C@H]5C(=O)N[C@@H](C)c5ccc(-c6scnc6C)cc5)C(C)(C)C)N4C(=O)[C@@H](NC(=O)c4ccc5ccc(C(F)(F)P(=O)(O)O)cc5c4)C3)c2c1 [Compound 29, (difluoro(7-(((5S,8S,10aR)-8-((4-(((S)-1-((2S,4R)-4-hydroxy-2-(((S)-1-(4-(4-methylthiazol-5-yl)phenyl)ethyl)carbamoyl)pyrrolidin-1-yl)-3,3-dimethyl-1-oxobutan-2-yl)amino)-4-oxobutyl)(methyl)carbamoyl)-3-(5-methylbenzo[d]isoxazole-3-carbonyl)-6-oxodecahydropyrrolo[1,2-a][1,5]diazocin-5-yl)carbamoyl)naphthalen-2-yl)methyl)phosphonic acid]	1 to 10	< 300	> 3
Cc1ccc2onc(C(=O)N3CC[C@H]4CC[C@@H](C(=O)N(C)CCCCOc5ccc(C6CCC(=O)NC6=O)cc5)N4C(=O)[C@@H](NC(=O)c4ccc5ccc(C(F)(F)P(=O)(O)O)cc5c4)C3)c2c1 (stereo partly drawn) [Compound 30, ((7-(((5S,8S,10aR)-8-((4-(4-(2,6-dioxopiperidin-3-yl)phenoxy)butyl)(methyl)carbamoyl)-3-(5-methylbenzo[d]isoxazole-3-carbonyl)-6-oxodecahydropyrrolo[1,2-a][1,5]diazocin-5-yl)carbamoyl)naphthalen-2-yl)difluoromethyl)phosphonic acid]	1 to 10	< 300	> 3
Cc1ccc2onc(C(=O)N3CC[C@H]4CC[C@@H](C(=O)NCCOc5cc(C(C(=O)N6C[C@H](O)C[C@H]6C(=O)N[C@H](C)c6ccc(-c7scnc7C)cc6)C(C)C)on5)N4C(=O)[C@@H](NC(=O)c4ccc5ccc(C(F)(F)P(=O)(O)O)cc5c4)C3)c2c1 (stereo partly drawn) [Compound 32, (difluoro(7-(((5S,8S,10aR)-8-((2-((5-(1-((2S,4R)-4-hydroxy-2-(((R)-1-(4-(4-methylthiazol-5-yl)phenyl)ethyl)carbamoyl)pyrrolidin-1-yl)-3-methyl-1-oxobutan-2-yl)isoxazol-3-yl)oxy)ethyl)carbamoyl)-3-(5-methylbenzo[d]isoxazole-3-carbonyl)-6-oxodecahydropyrrolo[1,2-a][1,5]diazocin-5-yl)carbamoyl)naphthalen-2-yl)methyl)phosphonic acid]	1 to 10	300 to 3000	> 3
Cc1ccc2onc(C(=O)N3CC[C@H]4CC[C@@H](C(=O)N5CCN(c6cc(C(C(=O)N7C[C@H](O)C[C@H]7C(=O)N[C@H](C)c7ccc(-c8scnc8C)cc7)C(C)C)on6)CC5)N4C(=O)[C@@H](NC(=O)c4ccc5ccc(C(F)(F)P(=O)(O)O)cc5c4)C3)c2c1 (stereo partly drawn) [Compound 33, (difluoro(7-(((5S,8S,10aR)-8-(4-(5-(1-((2S,4R)-4-hydroxy-2-(((R)-1-(4-(4-methylthiazol-5-yl)phenyl)ethyl)carbamoyl)pyrrolidin-1-yl)-3-methyl-1-oxobutan-2-yl)isoxazol-3-yl)piperazine-1-carbonyl)-3-(5-methylbenzo[d]isoxazole-3-carbonyl)-6-oxodecahydropyrrolo[1,2-a][1,5]diazocin-5-yl)carbamoyl)naphthalen-2-yl)methyl)phosphonic acid]	1 to 10	< 300	> 3
Cc1ccc2onc(C(=O)N3CC[C@H]4CC[C@@H](C(=O)N5CCN(c6ccc7c(c6)[nH]c(=O)n7C6CCC(=O)NC6=O)CC5)N4C(=O)[C@@H](NC(=O)c4ccc5ccc(C(F)(F)P(=O)(O)O)cc5c4)C3)c2c1 (stereo partly drawn) [Compound 34, ((7-(((5S,8S,10aR)-8-(4-(1-(2,6-dioxopiperidin-3-yl)-2-oxo-2,3-dihydro-1H-benzo[d]imidazol-5-yl)piperazine-1-carbonyl)-3-(5-methylbenzo[d]isoxazole-3-carbonyl)-6-oxodecahydropyrrolo[1,2-a][1,5]diazocin-5-yl)carbamoyl)naphthalen-2-yl)difluoromethyl)phosphonic acid]	1 to 10	< 300	> 3
Cc1ccc2onc(C(=O)N3CC[C@H]4CC[C@@H](C(=O)Nc5cccc6c5CN(C5CCC(=O)NC5=O)C6=O)N4C(=O)[C@@H](NC(=O)c4ccc5ccc(C(F)(F)P(=O)(O)O)cc5c4)C3)c2c1 (stereo partly drawn) [Compound 35, ((7-(((5S,8S,10aR)-8-((2-(2,6-dioxopiperidin-3-yl)-1-oxoisoindolin-4-yl)carbamoyl)-3-(5-methylbenzo[d]isoxazole-3-carbonyl)-6-oxodecahydropyrrolo[1,2-a][1,5]diazocin-5-yl)carbamoyl)naphthalen-2-yl)difluoromethyl)phosphonic acid]	> 10	< 300	> 3
